In patent publication US12459997B2, “Compounds and methods targeting interleukin-19” (Eli Lilly and Company, priority 2018, dated 2025):

Columns and labels:
Ps0 patients [1] = experiment: Ps0 study in anti-IL-17 treatment groups: serum IL-19 and PASI; assay type: in vivo, human; conditions: for number of patients achieving at least PASI 75: title: week 16, head: Week 2
Source text: (§1) According to an exemplified embodiment, a sandwich ELISA assay for the sensitive detection of IL-19 is provided herein. According to an exemplified embodiment, a first IL-19 antibody (selected from Table 1, 2 or 3) is utilized as an IL-19 capture antibody and a second IL-19 antibody (selected from Table 1, 2 or 3) is utilized as an IL-19 reporter antibody. […] According to some embodiments, one milligram of the first IL-19 antibody (the capture antibody) is biotinylated using Pierce biotinylation kit (Cat #) and one milligram of the second IL-19 antibody (the reporter antibody) is labeled with ruthenium using MesoScale Discovery (MSD) kit for electrochemiluminescent (ECL) detection. According to such embodiment, labeled antibodies are evaluated using MALDI-TOF to ensure suitable labeling, and then diluted in 50% glycerol and stored at −20° C. prior to use.
(§2) Streptavidin-coated 96-well MSD plates are washed three times with TBST (Tris buffered saline containing 10 mmol/L Tris pH 7.40, 150 mmol/L NaCl with 1 mL Tween 20/L) and then blocked with TBS-T plus 1% BSA for 1 hour at room temperature. Plates are again washed and wells are then incubated with biotinylated IL-19 capture antibody (1 mg/L) for 1 hour. Thereafter, plates are again washed prior to patient sample testing.
(§3) During patient sample testing, a standard curve is generated using 50 μL of recombinant human IL-19 control standard (serially diluted IL-19 recombinant protein ranging from 100-0.0001 ng/L, and including a zero blank, in assay buffer of 50 mmol/L HEPES, pH 7.40, 150 mmol/L NaCl, 10 mL/L Triton X-100, 5 mmol/L EDTA, and 5 mmol/L EGTA). […] Patient samples (which, according to the present invention, may include blood, serum or plasma) are diluted 1:4 in assay buffer and added to respective wells. The plate is incubated overnight at 4° C. Following incubation, wells are aspirated and washed 3 times with TBST. Thereafter, 50 μL of ruthenium-labeled IL-19 detection antibody (0.5 mg/L) is added to the wells for a 1-hour incubation at room temperature. Following incubation, wells are aspirated and washed 3 times with TBST. Thereafter, 150 μl of 2×MSD read buffer is added. Ruthenium electrochemiluminescence in the wells is detected using a MSD Sector 6000 plate reader. Data is analyzed and IL-19 MSD immunoassay calibration curve fitting is performed using MesoScale Discovery software. SAS® software version 9.4 (PROC MIXED) is used for assessing treatment effects on IL-19 levels using a mixed effects model with an unstructured covariance matrix and log10 transformed IL-19 concentrations (SAS. Version 9.4 for UNIX; SAS Institute Inc.: Cary, N.C., 2016). Statistical analysis is generated with the ggplot and pROC packages using R version 3.3.3 statistical computing environment (www.R-project.org, Vienna, Austria, 2017).
The study includes five treatment group doses of: 10 mg (n=24), 25 mg (n=23), 75 mg (n=26), or 150 mg (n=28) of ixekizumab or placebo (n=24). Administration of all treatment doses is subcutaneous, and doses are administered starting at week 0 and every 2 weeks thereafter up to week 16 (inclusive).

PsA patients = experiment: PsA study in anti-IL-17 treatment groups: serum IL-19 and PASI; assay type: in vivo, human; conditions: for IL-19 (geometric mean) serum levels: subcutaneous
Source text: as §1, §2, §3
A study of IL-19 levels, in serum of 309 PsA patients treated with a therapeutic antibody targeting IL-17, ixekizumab, is performed. The study includes three treatment groups: (i.) anti-IL-17 treatment group, administered ixekizumab 160 mg at baseline followed by an 80 mg dose administered every two weeks thereafter for 12 weeks (n=103); (ii.) anti-IL-17 treatment group, administered ixekizumab 160 mg at baseline followed by an 80 mg dose administered every four weeks thereafter for 12 weeks (n=107); or (iii.) placebo (n=105). Administration of all treatment doses is subcutaneous. […] Serum IL-19 concentration levels are presented in Table 21; week 4 and 12 PASI prognostic values showing correlations of IL-19 serum levels and PASI in patients (21 ng/L, indicates the upper limit of the normal range of IL-19 in healthy subjects) are presented in Tables 22 and 23, respectively.

Ps0 patients [2] = conditions: cited from earlier work
[3] = 10 mg subcutaneous every 2 weeks, week 16
[4] = 25 mg subcutaneous every 2 weeks, week 16
[5] = 75 mg subcutaneous every 2 weeks, week 16
[6] = 150 mg subcutaneous every 2 weeks, week 16
[7] = Q2W, IL-19 at week 4 and PASI at week 12
[8] = Q2W, IL-19 at week 12 and PASI at week 12
[9] = Q4W, IL-19 at week 4 and PASI at week 12
[10] = Q4W, IL-19 at week 12 and PASI at week 12

ixekizumab
IL-19 serum levels (geometric mean) (Ps0 patients [1]; 10 mg subcutaneous every 2 weeks, Week 0 (baseline)): 111.6 pg/mL | IL-19 serum levels (geometric mean) (Ps0 patients [1]; 10 mg subcutaneous every 2 weeks, Week 2): 45.3 pg/mL | number of patients achieving at least PASI 75 (Ps0 patients [1]; 10 mg subcutaneous every 2 weeks, n = 19): 5 | % of patients with serum IL-19 concentration ≤ 21 pg/mL (Ps0 patients [1]; [3]): 42.1% (8/19) | % patients with serum IL-19 concentration ≤ 21 pg/mL achieving at least PASI 75 (Ps0 patients [1]; [3]): 62.5% (5/8) | % patients with serum IL-19 concentration ≤ 21 pg/mL not achieving at least PASI 75 (Ps0 patients [1]; [3]): 37.5% (3/8)^ | IL-19 serum levels (geometric mean) (Ps0 patients [1]; [3]): 57.3 pg/mL | IL-19 serum levels (geometric mean) (Ps0 patients [1]; 25 mg subcutaneous every 2 weeks, Week 0 (baseline)): 89.0 pg/mL | IL-19 serum levels (geometric mean) (Ps0 patients [1]; 25 mg subcutaneous every 2 weeks, Week 2): 22.3 pg/mL | number of patients achieving at least PASI 75 (Ps0 patients [1]; 25 mg subcutaneous every 2 weeks, n = 20): 16 | % of patients with serum IL-19 concentration ≤ 21 pg/mL (Ps0 patients [1]; [4]): 70% (14/20) | % patients with serum IL-19 concentration ≤ 21 pg/mL achieving at least PASI 75 (Ps0 patients [1]; [4]): 92.9% (13/14) | % patients with serum IL-19 concentration ≤ 21 pg/mL not achieving at least PASI 75 (Ps0 patients [1]; [4]): 7.1% (1/14) | IL-19 serum levels (geometric mean) (Ps0 patients [1]; [4]): 13.6 pg/mL | IL-19 serum levels (geometric mean) (Ps0 patients [1]; 75 mg subcutaneous every 2 weeks, Week 0 (baseline)): 86.7 pg/mL | IL-19 serum levels (geometric mean) (Ps0 patients [1]; 75 mg subcutaneous every 2 weeks, Week 2): 11.6 pg/mL | number of patients achieving at least PASI 75 (Ps0 patients [1]; 75 mg subcutaneous every 2 weeks, n = 24): 21 | % of patients with serum IL-19 concentration ≤ 21 pg/mL (Ps0 patients [1]; [5]): 91.7% (22/24)^ | % patients with serum IL-19 concentration ≤ 21 pg/mL achieving at least PASI 75 (Ps0 patients [1]; [5]): 86.4% (19/22) | % patients with serum IL-19 concentration ≤ 21 pg/mL not achieving at least PASI 75 (Ps0 patients [1]; [5]): 13.6% (3/22) | IL-19 serum levels (geometric mean) (Ps0 patients [1]; [5]): 9.4 pg/mL | IL-19 serum levels (geometric mean) (Ps0 patients [1]; 150 mg subcutaneous every 2 weeks, Week 0 (baseline)): 87.1 pg/mL | IL-19 serum levels (geometric mean) (Ps0 patients [1]; 150 mg subcutaneous every 2 weeks, Week 2): 13.9 pg/mL | number of patients achieving at least PASI 75 (Ps0 patients [1]; 150 mg subcutaneous every 2 weeks, n = 24): 22 | % of patients with serum IL-19 concentration ≤ 21 pg/mL (Ps0 patients [1]; [6]): 92% (23/25) | % patients with serum IL-19 concentration ≤ 21 pg/mL achieving at least PASI 75 (Ps0 patients [1]; [6]): 95% (19/20) | % patients with serum IL-19 concentration ≤ 21 pg/mL not achieving at least PASI 75 (Ps0 patients [1]; [6]): 5% (1/20) | IL-19 serum levels (geometric mean) (Ps0 patients [1]; [6]): 11.9 pg/mL | IL-19 (geometric mean) serum levels (PsA patients; Q2W: 160 mg at baseline, then 80 mg every two weeks, Week 0 (baseline)): 23.0 pg/mL | IL-19 (geometric mean) serum levels (PsA patients; Q2W: 160 mg at baseline, then 80 mg every two weeks, Week 4): 6.0 pg/mL | IL-19 (geometric mean) serum levels (PsA patients; Q2W: 160 mg at baseline, then 80 mg every two weeks, Week 12): 6.1 pg/mL | % of patients with serum IL-19 concentration ≤ 21 pg/mL (PsA patients; Q2W, IL-19 at week 4): 97.5% (79/81) | % patients with serum IL-19 concentration ≤ 21 pg/mL achieving at least PASI 75 (PsA patients; [7]): 72.2% (57/79) | % patients with serum IL-19 concentration ≤ 21 pg/mL not achieving at least PASI 75 (PsA patients; [7]): 27.8% (22/79) | % of patients with serum IL-19 concentration ≤ 21 pg/mL (PsA patients; Q2W, IL-19 at week 12): 96.7% (87/90) | % patients with serum IL-19 concentration ≤ 21 pg/mL achieving at least PASI 75 (PsA patients; [8]): 73.1% (57/78) | % patients with serum IL-19 concentration ≤ 21 pg/mL not achieving at least PASI 75 (PsA patients; [8]): 26.9% (21/78) | IL-19 (geometric mean) serum levels (PsA patients; Q4W: 160 mg at baseline, then 80 mg every four weeks, Week 0 (baseline)): 31.3 pg/mL | IL-19 (geometric mean) serum levels (PsA patients; Q4W: 160 mg at baseline, then 80 mg every four weeks, Week 4): 7.6 pg/mL | IL-19 (geometric mean) serum levels (PsA patients; Q4W: 160 mg at baseline, then 80 mg every four weeks, Week 12): 7.3 pg/mL | % of patients with serum IL-19 concentration ≤ 21 pg/mL (PsA patients; Q4W, IL-19 at week 4): 90.8% (79/87) | % patients with serum IL-19 concentration ≤ 21 pg/mL achieving at least PASI 75 (PsA patients; [9]): 73.4% (58/79) | % patients with serum IL-19 concentration ≤ 21 pg/mL not achieving at least PASI 75 (PsA patients; [9]): 26.6% (21/79) | % of patients with serum IL-19 concentration ≤ 21 pg/mL (PsA patients; Q4W, IL-19 at week 12): 93.5% (87/93) | % patients with serum IL-19 concentration ≤ 21 pg/mL achieving at least PASI 75 (PsA patients; [10]): 74.1% (60/81) | % patients with serum IL-19 concentration ≤ 21 pg/mL not achieving at least PASI 75 (PsA patients; [10]): 25.9% (21/81) | change of serum IL-19 in words (PsA patients; both ixekizumab treatment groups, sustained over the 12 week treatment): lowering of IL-19 to near normal levels after 4 weeks | patients achieved a 75% reduction in PASI score (PASI 75) (Ps0 patients [2]): 90%
